How the values were obtained:
Assay in all cases: relative viability (nuclei count vs DMSO), 5 days (fraction); higher = more cells survive
[1] = system: NCI-H2023
How it was run: (§1)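 Values are medians from duplicate plates. Each reflects relative viability, defined as the nuclei count of treated wells over that of vehicle wells. Lung cancer cell lines in 1536-well plates were pin-tool dosed one day after seeding with one drug alone or with a fixed anchor-drug dose plus five library-drug doses (not always all listed) in √10 steps, then fixed, stained and imaged at 4× after 5 days.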

[2] = system: NCI-H1734
How it was run: as §1

[3] = system: UMC-11
How it was run: as §1

[4] = system: H3255
How it was run: as §1

[5] = system: NCI-H1563
How it was run: as §1

[6] = system: SW 900
How it was run: as §1

[7] = system: NCI-H2347
How it was run: as §1

[8] = system: NCI-H520
How it was run: as §1

[9] = system: NCI-H2405
How it was run: as §1

[10] = system: PC-14
How it was run: as §1

[11] = system: 201T
How it was run: as §1

[12] = system: NCI-H1793
How it was run: as §1

[13] = system: NCI-H2170
How it was run: as §1

[14] = system: NCI-H441
How it was run: as §1

[15] = system: NCI-H1650
How it was run: as §1

[16] = system: NCI-H322M
How it was run: as §1

[17] = system: HCC-15
How it was run: as §1

[18] = system: EPLC-272H
How it was run: as §1

[19] = system: NCI-H647
How it was run: as §1

[20] = system: COR-L23
How it was run: as §1

[21] = system: LOU-NH91
How it was run: as §1

[22] = system: NCI-H3122
How it was run: as §1

Compound `O=c1cc(-c2cccc3c2Sc2ccccc2S3)oc(N2CCOCC2)c1` + Nc1nc2[nH]cc(CCc3ccc(C(=O)N[C@@H](CCC(=O)O)C(=O)O)cc3)c2c(=O)[nH]1 [Pemetrexed] (partner 0.2 µM) has a relative viability ([1]; first compound 0.08 µM) of 0.222, a relative viability ([1]; first compound 0.253 µM) of 0.3 and a relative viability ([1]; first compound 0.8 µM) of 0.198. It also gave a relative viability ([1]; first compound 2.53 µM) of 0.213, a relative viability ([1]; first compound 8 µM) of 0.221 and a relative viability ([2]; first compound 0.08 µM) of 0.394. The relative viability ([2]; first compound 0.253 µM) was 0.45, the relative viability ([2]; first compound 0.8 µM) was 0.487 and the relative viability ([2]; first compound 8 µM) was 0.432. For the same compound, the relative viability ([3]; first compound 0.08 µM) was 0.823, the relative viability ([3]; first compound 0.253 µM) was 1.04 and the relative viability ([3]; first compound 0.8 µM) was 0.82. For the same compound, the relative viability ([3]; first compound 2.53 µM) was 0.791, the relative viability ([3]; first compound 8 µM) was 0.935 and the relative viability ([4]; first compound 0.08 µM) was 0.474. The relative viability ([4]; first compound 0.253 µM) was 0.547, the relative viability ([4]; first compound 0.8 µM) was 0.533 and the relative viability ([4]; first compound 2.53 µM) was 0.552. It also gave a relative viability ([4]; first compound 8 µM) of 0.56, a relative viability ([5]; first compound 0.08 µM) of 0.695 and a relative viability ([5]; first compound 0.253 µM) of 0.741. The relative viability ([5]; first compound 0.8 µM) was 0.744, the relative viability ([5]; first compound 2.53 µM) was 0.684 and the relative viability ([5]; first compound 8 µM) was 0.787. The relative viability ([6]; first compound 0.253 µM) was 0.492, the relative viability ([6]; first compound 0.8 µM) was 0.495 and the relative viability ([6]; first compound 2.53 µM) was 0.439. The relative viability ([6]; first compound 8 µM) was 0.438, the relative viability ([7]; first compound 0.08 µM) was 0.386 and the relative viability ([7]; first compound 0.253 µM) was 0.458. For the same compound, the relative viability ([7]; first compound 0.8 µM) was 0.465, the relative viability ([7]; first compound 2.53 µM) was 0.424 and the relative viability ([7]; first compound 8 µM) was 0.435. The relative viability ([8]; first compound 0.08 µM) was 0.634, the relative viability ([8]; first compound 0.253 µM) was 0.835 and the relative viability ([8]; first compound 0.8 µM) was 0.739. The relative viability ([8]; first compound 2.53 µM) was 0.717, the relative viability ([8]; first compound 8 µM) was 0.69 and the relative viability ([9]; first compound 0.08 µM) was 0.859. The relative viability ([9]; first compound 0.253 µM) was 1.1, the relative viability ([9]; first compound 0.8 µM) was 1.06 and the relative viability ([9]; first compound 2.53 µM) was 0.83. For the same compound, the relative viability ([9]; first compound 8 µM) was 1.02, the relative viability ([10]; first compound 0.08 µM) was 0.138 and the relative viability ([10]; first compound 0.253 µM) was 0.135. It also gave a relative viability ([10]; first compound 0.8 µM) of 0.132, a relative viability ([10]; first compound 2.53 µM) of 0.119 and a relative viability ([10]; first compound 8 µM) of 0.12. For the same compound, the relative viability ([11]; first compound 0.08 µM) was 0.302, the relative viability ([11]; first compound 0.253 µM) was 0.353 and the relative viability ([11]; first compound 0.8 µM) was 0.37. The relative viability ([11]; first compound 2.53 µM) was 0.287, the relative viability ([11]; first compound 8 µM) was 0.302 and the relative viability ([12]; first compound 0.08 µM) was 0.728. It also gave a relative viability ([12]; first compound 0.253 µM) of 1.04, a relative viability ([12]; first compound 0.8 µM) of 0.798 and a relative viability ([12]; first compound 2.53 µM) of 0.679. For the same compound, the relative viability ([12]; first compound 8 µM) was 1.2, the relative viability ([13]; first compound 0.08 µM) was 0.268 and the relative viability ([13]; first compound 0.253 µM) was 0.271. For the same compound, the relative viability ([13]; first compound 0.8 µM) was 0.292, the relative viability ([13]; first compound 2.53 µM) was 0.256 and the relative viability ([13]; first compound 8 µM) was 0.262. The relative viability ([14]; first compound 0.08 µM) was 0.258, the relative viability ([14]; first compound 0.253 µM) was 0.268 and the relative viability ([14]; first compound 0.8 µM) was 0.255. For the same compound, the relative viability ([14]; first compound 2.53 µM) was 0.26, the relative viability ([14]; first compound 8 µM) was 0.241 and the relative viability ([15]; first compound 0.08 µM) was 0.362. It also gave a relative viability ([15]; first compound 0.253 µM) of 0.366, a relative viability ([15]; first compound 0.8 µM) of 0.407 and a relative viability ([15]; first compound 2.53 µM) of 0.415. It also gave a relative viability ([15]; first compound 8 µM) of 0.36, a relative viability ([16]; first compound 0.08 µM) of 0.57 and a relative viability ([16]; first compound 0.253 µM) of 0.61. It also gave a relative viability ([16]; first compound 0.8 µM) of 0.598, a relative viability ([16]; first compound 2.53 µM) of 0.634 and a relative viability ([16]; first compound 8 µM) of 0.602. For the same compound, the relative viability ([17]; first compound 0.08 µM) was 0.23, the relative viability ([17]; first compound 0.253 µM) was 0.253 and the relative viability ([17]; first compound 0.8 µM) was 0.207. For the same compound, the relative viability ([17]; first compound 2.53 µM) was 0.204, the relative viability ([17]; first compound 8 µM) was 0.228 and the relative viability ([18]; first compound 0.08 µM) was 0.296. The relative viability ([18]; first compound 0.253 µM) was 0.224, the relative viability ([18]; first compound 0.8 µM) was 0.333 and the relative viability ([18]; first compound 2.53 µM) was 0.304. For the same compound, the relative viability ([18]; first compound 8 µM) was 0.197, the relative viability ([19]; first compound 0.08 µM) was 0.168 and the relative viability ([19]; first compound 0.253 µM) was 0.149. It also gave a relative viability ([19]; first compound 0.8 µM) of 0.17, a relative viability ([19]; first compound 2.53 µM) of 0.169 and a relative viability ([19]; first compound 8 µM) of 0.159. For the same compound, the relative viability ([20]; first compound 0.08 µM) was 0.194, the relative viability ([20]; first compound 0.253 µM) was 0.215 and the relative viability ([20]; first compound 0.8 µM) was 0.215. The relative viability ([20]; first compound 2.53 µM) was 0.195, the relative viability ([20]; first compound 8 µM) was 0.197 and the relative viability ([21]; first compound 0.08 µM) was 0.332. It also gave a relative viability ([21]; first compound 0.253 µM) of 0.34, a relative viability ([21]; first compound 0.8 µM) of 0.367 and a relative viability ([21]; first compound 2.53 µM) of 0.397. The relative viability ([21]; first compound 8 µM) was 0.31, the relative viability ([22]; first compound 0.08 µM) was 0.205 and the relative viability ([22]; first compound 0.253 µM) was 0.197. The relative viability ([22]; first compound 0.8 µM) was 0.186, the relative viability ([22]; first compound 2.53 µM) was 0.191 and the relative viability ([22]; first compound 8 µM) was 0.18.

— the supplement of paper PMC10307832
